Several values for one entry are separate records, joined by “and”; a condition that tells them apart may be missing. Identical values can stand only once. Marks after values point to notes of the source that are not given here.
Key:
[1] = test system: Sprague-Dawley (SD) rats; assay: Starch loading test, postprandial blood glucose; type: in vivo, rat; conditions: for BGL AUCt / blood glucose level / increase in blood glucose level: SD rats; for BGL AUCt: starch 2.0 g/kg; for blood glucose level / increase in blood glucose level: starch 2.0 g/kg oral, 30 min after administration
Description: (§1) All animal procedures were approved by Institutional Animal Care and Use Committee (IACUC) of the Hannam University (Approval number: HNU2017-003). Four-week-old male SD rats were purchased from Raon Bio Co. (Gyeonggi-do, Korea) and fed a solid diet (Raon Bio Co., Gyeonggi-do, Korea) for one week. The rats were housed in a ventilated room at 23 ± 2 °C with 50 ± 5% relative humidity, and under an alternating 12 h light/dark cycle. […] The blood samples were then taken from the tail after administration and blood glucose levels were measured at 0, 0.5, 1, 2, and 3 h.

[2] = test system: Sprague-Dawley (SD) rats; assay: Sucrose loading test, postprandial blood glucose; type: in vivo, rat; conditions: for BGL AUCt / blood glucose level / change (increase) of blood glucose level: SD rats; for BGL AUCt: sucrose 2.0 g/kg; for blood glucose level / change (increase) of blood glucose level: sucrose 2.0 g/kg oral, 30 min after administration
Description: as §1

[3] = test system: rat intestinal α-glucosidase; assay: Rat intestinal α-glucosidase inhibition assay (pNPG); type: biochemical; conditions: for IC50 Rat intestinal α-Glucosidase: mean ± S.D.
Description: The rat intestinal α-glucosidase assay was administered as per the method of Kwon et al. with slight modification. A total of 1 g of rat-intestinal acetone powder was suspended in 3 mL of 0.1 M sodium phosphate buffer (pH 6.9), and the suspension was sonicated 12 times for 30 s at 4 °C. After centrifugation (10,000× g, 30 min, 4 °C), the resulting supernatant was used for the assay. Sample solution (50 μL) and 0.1 phosphate buffer (pH 6.9, 100 μL) containing α-glucosidase (Sigma-Aldrich, St. Luis, MO, USA) solution (1.0 U/mL) was incubated at 37 °C for 10 min. After pre-incubation, 5 mM p-nitrophenyl-α-D-glucopyranoside solution (50 μL) in 0.1 M phosphate buffer (pH 6.9) was added to each well at timed intervals. The reaction mixtures were incubated at 37 °C for 30 min. Before and after incubation, absorbance was read at 405 nm and compared to a control, which had 50 μL of buffer solution in place of the extract by micro-plate reader (SUNRISE; Tecan Trading AG, Salzburg, Austria). The α-glucosidase inhibitory activity was expressed as inhibition % and was calculated as follows: Inhibition(%)=(ΔA 405 (Control)−ΔA 405(Extract)/ΔA 405 (Control))×100

[4] = biological target: T1, porcine pancreatic α-amylase (Sus scrofa, UniProt P00690); assay: Porcine pancreatic α-amylase inhibition assay; type: biochemical; conditions: for IC50: mean ± S.D.
T1 sequence (P00690 16-511): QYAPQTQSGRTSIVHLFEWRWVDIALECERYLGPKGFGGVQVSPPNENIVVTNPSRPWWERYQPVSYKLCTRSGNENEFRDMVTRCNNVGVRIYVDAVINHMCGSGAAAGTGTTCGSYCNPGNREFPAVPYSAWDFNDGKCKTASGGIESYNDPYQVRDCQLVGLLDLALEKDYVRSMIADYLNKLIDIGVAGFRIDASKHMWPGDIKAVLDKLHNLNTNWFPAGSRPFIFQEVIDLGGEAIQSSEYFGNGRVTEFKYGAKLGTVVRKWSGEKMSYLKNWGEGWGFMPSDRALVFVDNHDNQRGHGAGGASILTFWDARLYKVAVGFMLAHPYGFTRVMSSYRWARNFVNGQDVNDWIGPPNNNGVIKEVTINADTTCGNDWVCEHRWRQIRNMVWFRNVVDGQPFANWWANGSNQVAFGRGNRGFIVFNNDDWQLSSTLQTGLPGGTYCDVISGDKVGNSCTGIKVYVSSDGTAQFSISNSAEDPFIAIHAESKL
Description: The porcine pancreatic α-amlyase inhibition assay was administered as per the method of Kwon et al. Sample solution (200 μL) and 0.02 M sodium phosphate buffer (pH 6.9 with 0.006 M sodium chloride, 500 μL) containing α-amylase solution (0.5 mg/mL, 5.0 MU/mL) were incubated at 25 °C for 10 min. After preincubation, 500 μL of a 1% starch solution in 0.02 M sodium phosphate buffer was added. The reaction mixture was then incubated at 25 °C for 10 min. The reaction was stopped with 1.0 mL of dinitrosalicylic acid (DNS). The reaction mixture was then incubated in a boiling water bath for 5 min and cooled to room temperature. The reaction mixture at 540 nm with ELISA microplate reader (SUNRISE; Tecan Trading AG, Saltzburg, Austria).

[5] = biological target: T2, Rat Intestinal SUCRASE (Rattus norvegicus, UniProt P23739); assay: Sucrase inhibition assay (rat intestinal acetone powder); type: biochemical; conditions: mean ± S.D.
T2 construct: The crude enzyme solution prepared from rat intestinal acetone powder; tissue Sigma-Aldrich Co; host or cells: rat intestine (acetone powder)
T2 sequence (P23739 whole entry): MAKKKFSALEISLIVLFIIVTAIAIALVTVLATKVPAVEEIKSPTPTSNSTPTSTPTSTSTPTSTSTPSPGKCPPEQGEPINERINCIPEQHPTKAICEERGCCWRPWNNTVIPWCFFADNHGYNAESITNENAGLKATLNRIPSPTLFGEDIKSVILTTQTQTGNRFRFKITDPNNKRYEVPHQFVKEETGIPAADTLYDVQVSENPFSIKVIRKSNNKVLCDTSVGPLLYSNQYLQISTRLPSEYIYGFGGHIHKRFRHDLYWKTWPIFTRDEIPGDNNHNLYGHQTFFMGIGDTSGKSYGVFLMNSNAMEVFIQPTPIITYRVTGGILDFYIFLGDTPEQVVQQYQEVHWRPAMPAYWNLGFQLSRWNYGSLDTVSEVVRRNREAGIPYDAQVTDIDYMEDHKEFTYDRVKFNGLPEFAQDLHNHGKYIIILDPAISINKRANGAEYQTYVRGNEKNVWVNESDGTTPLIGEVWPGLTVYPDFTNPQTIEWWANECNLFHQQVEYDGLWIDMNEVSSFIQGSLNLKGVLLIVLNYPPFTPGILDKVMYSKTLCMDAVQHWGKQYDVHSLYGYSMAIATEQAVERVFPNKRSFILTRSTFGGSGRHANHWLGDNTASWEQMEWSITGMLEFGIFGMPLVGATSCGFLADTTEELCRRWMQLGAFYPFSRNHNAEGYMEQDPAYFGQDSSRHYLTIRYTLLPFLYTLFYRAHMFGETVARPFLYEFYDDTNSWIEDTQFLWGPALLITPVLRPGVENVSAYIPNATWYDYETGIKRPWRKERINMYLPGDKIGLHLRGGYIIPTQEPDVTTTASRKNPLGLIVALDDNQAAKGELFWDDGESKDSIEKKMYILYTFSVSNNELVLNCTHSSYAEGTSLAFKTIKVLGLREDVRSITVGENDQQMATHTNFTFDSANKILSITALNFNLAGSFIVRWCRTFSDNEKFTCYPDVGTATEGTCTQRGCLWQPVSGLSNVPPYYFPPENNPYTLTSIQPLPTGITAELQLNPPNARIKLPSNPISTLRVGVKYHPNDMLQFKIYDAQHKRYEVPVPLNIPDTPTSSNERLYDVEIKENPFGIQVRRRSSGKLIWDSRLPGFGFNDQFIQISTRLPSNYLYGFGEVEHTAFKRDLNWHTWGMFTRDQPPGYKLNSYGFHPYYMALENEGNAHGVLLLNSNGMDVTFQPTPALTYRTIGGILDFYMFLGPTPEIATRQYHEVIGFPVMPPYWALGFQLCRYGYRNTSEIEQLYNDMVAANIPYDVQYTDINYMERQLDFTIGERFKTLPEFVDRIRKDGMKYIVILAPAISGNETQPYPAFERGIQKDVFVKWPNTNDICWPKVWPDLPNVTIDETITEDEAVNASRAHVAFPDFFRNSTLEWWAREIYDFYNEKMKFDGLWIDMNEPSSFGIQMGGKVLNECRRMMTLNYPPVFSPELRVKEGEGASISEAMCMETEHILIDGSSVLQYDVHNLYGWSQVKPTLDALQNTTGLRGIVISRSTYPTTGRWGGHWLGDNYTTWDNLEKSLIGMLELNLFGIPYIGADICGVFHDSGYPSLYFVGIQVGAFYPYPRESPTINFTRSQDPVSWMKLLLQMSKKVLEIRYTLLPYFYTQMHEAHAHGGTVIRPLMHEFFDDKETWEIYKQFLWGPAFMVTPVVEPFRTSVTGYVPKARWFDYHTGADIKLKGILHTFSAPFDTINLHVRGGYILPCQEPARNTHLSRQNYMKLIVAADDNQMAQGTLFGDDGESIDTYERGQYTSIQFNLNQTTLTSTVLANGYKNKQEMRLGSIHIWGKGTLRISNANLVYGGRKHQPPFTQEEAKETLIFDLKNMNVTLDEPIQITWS
Description: (§2) The crude enzyme solution prepared from rat intestinal acetone powder Sigma-Aldrich Co. (St. Louise, MO, USA) was used as the small intestinal maltase, sucrose, and glucoamylase, showing specific activities of 0.70, 0.34, and 0.45 units/mL, respectively. Rat intestinal acetone powder (1.0 g) was suspended in 3 mL of 0.1 M sodium phosphate buffer, and the suspension was sonicated 12 times for 30 s at 4 °C. After centrifugation (10,000 × g, 30 min, 4 °C), the resulting supernatant was used for the assay. Maltase, sucrose, and glucoamylase inhibitory activity were assay by modifying a method developed by Dahlqvist. The inhibitory activity was determined by incubating a solution of an enzyme (50 μL), 0.1 M phosphate buffer (pH 7.0, 100 μL) containing 0.4 mg/mL sucrose or maltose or 1% soluble starch, and a solution (50 μL) with various concentrations of sample solution (between 0.05 and 1.0 mM) at 37 °C for 30 min. The reaction mixture was heated in a boiling water bath to stop the reaction for 10 min, and the amount of liberated glucose was then measured by the glucose oxidase. The inhibitory activity was calculated from the formula as follows. Inhibition (%) = (C − T)/C × 100, where C is the enzyme activity without inhibitor, and T is the enzyme activity with inhibitor.

[6] = test system: Rat Intestinal Maltase; assay: Maltase inhibition assay (rat intestinal acetone powder); type: biochemical; conditions: for IC50 Rat Intestinal Maltase: mean ± S.D.
Description: as §2

[7] = biological target: Rat Intestinal Glucoamylase (Rattus norvegicus, UniProt D3ZTX4); assay: Glucoamylase inhibition assay (rat intestinal acetone powder); type: biochemical; conditions: read-out: glucoamylase inhibition
Description: as §2

[8] = two highest tested doses 5 and 7 mg/mL
[9] = starch loading, 30 min, vs pyridoxine-treated group
[10] = starch loading, 30 min, vs starch (control) group
[11] = sucrose loading, 30 min, vs pyridoxine-treated group

SMILES | IC50 Rat intestinal α-Glucosidase [3] | IC50 [4] | pancreatic α-amylase inhibitory effect [4, 8] | IC50 [5] | IC50 Rat Intestinal Maltase [6] | blood glucose level [1] | increase in blood glucose level [1] | BGL AUCt ([1]; sample 0.1 g/kg oral) | blood glucose level [2] | change (increase) of blood glucose level [2] | BGL AUCt ([2]; sample 0.1 g/kg oral) | other results
C[C@H]1O[C@H](O[C@H]2[C@H](O)[C@@H](O)[C@@H](O[C@H]3[C@H](O)[C@@H](O)C(O)O[C@@H]3CO)O[C@@H]2CO)[C@H](O)[C@@H](O)[C@@H]1N[C@H]1C=C(CO)[C@@H](O)[C@H](O)[C@H]1O (stereo partly drawn) [Acarbose, reference compound] |  |  |  |  |  |  |  |  |  |  |  | BGL AUCt ([1]; Acarbose 0.005 g/kg oral): 228.88 ± 13.09 ^a h∙mg/dL; BGL AUCt ([2]; Acarbose 0.005 g/kg oral): 237.94 ± 8.82 ^a h∙mg/dL
Cc1ncc(CO)c(C=O)c1O [Pyridoxal] | 4.14 mg/mL and 4.15 ± 0.17 ^b mg/mL | 77.3 ± 7.3 mM | showed α-amylase inhibitory effects | 1.91 ± 0.179 mM | 0.38 mg/mL and 0.37 ± 0.13 ^b mg/mL | 175.36 ± 10.84 mg/dL | 79.78 ± 10.84 mg/dL | 268.27 ± 8.80 ^b h∙mg/dL | 164.74 ± 12.06 mg/dL | 64.88 ± 12.06 mg/dL | 272.99 ± 5.96 ^b h∙mg/dL | α-glucosidase inhibition ([3]; highest tested dose 7 mg/mL): 79.83%; maltase inhibitory activity ([6]; 0.5 mg/mL): 48.39%; maltase inhibitory activity ([6]; 1 mg/mL): 70.10%; maltase inhibitory activity ([6]; 2 mg/mL): 83.29%; inhibition at 200 µg/mL [7]: 42.8%; inhibition at 500 µg/mL [7]: 66.1%; inhibition at 1000 µg/mL [7]: 78.6%; decrease of maximum blood glucose level (Cmax) compared to control ([1]; starch loading test, p < 0.05): ~19%; increase in blood glucose level, less than that of pyridoxine-treated group [1, 9]: 27.91 mg/dL; suppression of blood glucose level compared to pyridoxine-treated group [1, 9]: 26.41 mg/dL; increase in blood glucose level, less than that of starch group [1, 10]: 44.45 mg/dL; suppression of blood glucose level compared to starch group [1, 10]: 41.56 mg/dL; blood glucose reduction compared to control ([2]; at 30 min, loading test not given): around 18%; decrease of maximum blood glucose level (Cmax) compared to control ([2]; sucrose loading test, p < 0.05): about 18%; blood glucose level, less than that of pyridoxine-treated group [2, 11]: 27.76 mg/dL; change of blood glucose level, lower than pyridoxine-treated group [2, 11]: 27.98 mg/dL; blood glucose level, less than that of sucrose-treated group ([2]; sucrose loading, 30 min, vs sucrose (control) group): 35.89 mg/dL
Cc1ncc(CO)c(CN)c1O [Pyridoxamine] | 4.85 ± 0.06 ^a mg/mL | 88.8 mM | showed α-amylase inhibitory effects | 2.08 mM | 1.08 ± 0.10 ^a mg/mL |  |  | 275.10 ± 7.31 ^b h∙mg/dL |  |  | 269.14 ± 13.40 ^b h∙mg/dL | 
Cc1ncc(CO)c(CO)c1O [Pyridoxine] | 5.02 ± 0.05 ^a mg/mL | 137 mM |  | 1.89 mM | 0.87 ± 0.08 ^a mg/mL | 201.78 ± 18.99 mg/dL | 107.69 ± 18.99 mg/dL | 274.28 ± 15.62 ^b h∙mg/dL | 192.50 ± 10.10 mg/dL | 92.86 ± 10.10 mg/dL | 290.64 ± 15.55 ^c h∙mg/dL | pancreatic α-amylase inhibitory effect ([4]; highest tested dose 7 mg/mL): no inhibitory effects

Reference: PMC5872703, “The Postprandial Anti-Hyperglycemic Effect of Pyridoxine and Its Derivatives Using In Vitro and In Vivo Animal Models” (Nutrients, 2018)
